The subject of the test is HepG2 viability, CellTiter-Glo ATP luminescence, 48 h. The test is described as follows: loss of viability in HepG2 cells – cell-based, CellTiter-Glo, cherry-picked, cytotoxicity control for Shn3 inhibitor project, dose response (AID 624134).

Molecules are shown by their SMILES. Several values for one entry are separate records, joined by “and”; a condition that tells them apart may be missing. Identical values can stand only once. Inconclusive results are not listed. Activity calls are given as the source filed them.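 Rule for the calls: active = signal drop with fitted half-maximal concentration no higher than twice the top valid tested concentration; inconclusive = flat curve with 30 to 70% signal loss, or poor fit; inactive = the rest, including signal rises and flat curves within 30%.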 Some results are limits rather than exact numbers.

On to `CC(=O)OC1C(=O)OCC23CCC4(C)OC4C2OC2CC(OC(=O)C=CC=CC(=O)OCCC1C)C3(C)C21CO1` (stereo not given), for which the AC50 is > 70 µM (inactive). Consider `CCN1CCN(Cc2ccc(NC(=O)c3cc(NC(=O)c4cc5cccc(OC)c5o4)cc(OC)c3)cc2C(F)(F)F)CC1`, for which the AC50 was 18.9 µM and 9.13 µM.

Consider `CC(=O)OCC12CC(OC(=O)CC(C)C)C(C)=CC1OC1C(O)C(OC(C)=O)C2(C)C12CO2` (stereo not given), for which the AC50 was > 70 µM (inactive). As for `C[C@H]1[C@@H](OS(=O)(=O)O)C[C@@H]2C[C@H]([C@@H](O)c3cc(=O)[nH]c(=O)[nH]3)NC3=NC[C@H]1N32`, the figure is 8.33 µM. Consider `CC(=O)OC[C@]12CCC(C)=C[C@H]1O[C@@H]1[C@H](O)[C@@H](OC(C)=O)[C@@]2(C)[C@]12CO2`, for which the AC50 was > 70 µM (inactive).

These data come from PubChem BioAssay AID624134 (Broad Institute, 2012).
